Source: patent US20120283175A1, “ANTIBACTERIAL COMPOSITIONS” (Achaogen, Inc., priority 2009, published 2012)
≈ marks a conversion by molar mass, not a printed value. Where “and” joins values, the source holds several entries; their conditions need not be identical. Equal values may be shown once. Read-outs that look alike come from different tables or passages of the source.

Experiments:
gram negative bacteria = experiment: Checkerboard synergy score at fractions of the antibacterial agent's MIC, with LpxCi-1, -2, -3; assay type: cell-based; design: scale not given here
Procedure: Partial or full inhibition of LpxC should compromise the outer membrane and thus allow these synergizing agents to enter the cells and exert an antibacterial effect at concentrations where cells untreated with an LpxC inhibitor are unaffected. As a first step, checkerboard synergy assays for a variety of antibacterial agents were perform with several LpxC inhibitors, on several species of gram negative bacteria.
(§1) Bacterial isolates were cultivated from −70° C. frozen stocks of the indicated strains by overnight passages at 35° C. in ambient air on Mueller-Hinton agar (Beckton Dickinson, Franklin Lakes, N.J.). Minimum Inhibitory Concentrations (MICs) were determined by the broth microdilution method in accordance with the Clinical and Laboratory Standards Institute (CLSI) guidelines. In brief, organism suspensions were adjusted to a 0.5 McFarland standard to yield a final inoculum between 3×10^5 and 7×10^5 colony-forming units (CFU)/mL. Drug dilutions and inocula were made in sterile, cation adjusted Mueller-Hinton Broth (Beckton Dickinson). An inoculum volume of 100 μL was added to wells containing 100 μL of broth with 2-fold serial dilutions of drug. All inoculated microdilution trays were incubated in ambient air at 35° C. for 18-24 hours. Following incubation, the lowest concentration of the drug that prevented visible growth (OD600 nm <0.05) was recorded as the MIC.

K. pneumo. (ATCC43816) = experiment: Neutropenic thigh in vivo efficacy model (mice); design: species or system Klebsiella pneumoniae; Static Dose, LpxC cmpd / Static Dose, LpxC in combination: unit not given here; conditions: for Static Dose, LpxC cmpd: LpxC compound alone; for Static Dose, LpxC in combination: combination agent Vanco (440 mg/kg/day)
From the text: (§2) The model was run essentially as described by Craig and others (see Gudmundsson et al., “Murine Thigh Infection Model,” Handbook of Animal Models of Infection, M. A. Sande and O. Zak, Eds.; London: Academic Press, 1999, pp 137-144). Briefly, mice were rendered neutropenic prior to infection with 2 doses of cyclophosphamide, and then infected intramuscularly in the thigh with inocula of 10^3-10^5 CFU of either K. pneumo. (ATCC43816) or P. aeruginosa (ATCC27853). Antibiotics or vehicle alone as a negative control were administered twice at 2 hrs and 14 hrs post-infection. The animals were kept neutropenic for the duration of the experiment in order to minimize the effect of white blood cells on the infection such that the microbiological readout measures the in vivo interaction of drugs and bacteria. At 24 hrs post-infection, thighs were harvested, homogenized, and plated to measure the number of CFUs surviving per thigh. Thighs from a subset of animals were also harvested 2 hrs post-infection to record the CFUs present just prior to the first antibiotic treatment (pre-treatment).

[1] = tested on: Klebsiella pneumoniae (ATCC 43816); assay type: in vivo; conditions: for Mean CFU/g thigh muscle (SEM): normal plates; for Mean CFU/g thigh muscle (SEM) / CFU/Drug Plate - Dilution 10^0 / CFU/Drug Plate - Dilution 10^−1: Vancomycin 25 mg/kg, LpxC-i 35 mg/kg; for CFU/Drug Plate - Dilution 10^0 / CFU/Drug Plate - Dilution 10^−1: per animal N 1-5; for CFU/Drug Plate - Dilution 10^0: key: +: Too many colonies to permit accurate counting
Procedure: Vancomycin and LpxCi-5 were dissolved in 30% HPβCD (2-hydroxypropyl-β-cyclodextrin). Test substances were each administered subcutaneously (SC) singly or in combination to test animals at 2 hours and 14 hours after bacterial inoculation then bid daily for a total of 1, 2, 3 or 7 day(s). The dosing volume was 5 mL/kg.
Groups of 5 or 10 male specific-pathogen-free CD-1 (Crl.) mice weighing 24±2 g were used. Animals were immunosuppressed by two or three intraperitoneal injections of cyclophosphamide, the first at 150 mg/kg 4 days before infection (day −4) and the second or third at 100 mg/kg 1 day before or 3 days after infection (day −1 or +3). On day 0, animals were inoculated intramuscularly (0.1 mL/thigh) into the right thigh with a specific number (1.35×10^7 CFU/mouse) of Klebsiella pneumoniae (ATCC 43816). Vehicle and test substances (singly or in combination) were each administered subcutaneously 2 hours and 14 hours after inoculation then bid for a total of 1, 2, 3 or 7 consecutive day(s). Groups at 24, 48, 72 hours and day 8 hours after treatment as the designated time of harvest, muscle of the right thigh was harvested from each of the survival test animals. An additional group with no treatment, at 2 hours after inoculation, the muscle of the right thigh was harvested and viable CFU on agar plates with or without drug were quantified by standard methods. Animals in groups designated for Day 8 harvest are 10 mice and daily tally of survivors were kept until harvest and recorded. A non-infected group was just treated with LpxCi-5 and kept out to Day 8 and then harvested. The removed muscle tissues were then homogenized in 3˜4 mL of PBS, pH 7.4, with a ceramic mortar. Homogenates of 0.1 mL were used for serial 10-fold dilutions and plated on Muller-Hinton Broth in 1.5% Bacto agar and plated in parallel with drug plates for CFU determination. The original inoculum was adjusted to 2×10^8 CFU/0.1 mL and then plated onto the 3 different drug plates of LpxCi-5 for CFU count.
The immunity of animals treated with vehicle or vancomycin alone was suppressed by two intraperitoneal injections of cyclophosphamide, the first was at 150 mg/kg 4 days before infection (day −4) and the second was at 100 mg/kg 1 day before infection (day −1). On day 0, test compound and vehicle were each administered subcutaneously at 2 and 14 hrs after animals were inoculated intramuscularly (0.1 mL/thigh) with 1.35×10^7 CFU/mouse of Klebsiella pneumoniae (ATCC 43816).
(§3) The immunity of animals treated with LpxCi-5 alone was suppressed by two or three intraperitoneal injections of cyclophosphamide, the first was at 150 mg/kg 4 days before infection (day −4); the second and the third was at 100 mg/kg 1 day before and three days after infection (day −1 and day +3). On day 0, test compound were each administered subcutaneously bid at 2 and 14 hrs after animals were inoculated intramuscularly (0.1 mL/thigh) with 1.35×10^7 CFU/mouse of Klebsiella pneumoniae (ATCC 43816) for one, two, three or seven consecutive days. At 24, 48, 72 hours or at day 8 after treatment, muscle of the right thigh was harvested from each of the test animals for CFU determination in normal and drug plates.
as §3, with “both vancomycin and the LpxC inhibitor, LpxCi-5,” for “LpxCi-5 alone”, “compounds in combination” for “compound”, “days.” for “days. At 24, 48, 72 hours or at day 8 after treatment, muscle of the right thigh was harvested from each of the test animals for CFU determination in normal and drug plates.”

[2] = tested on: P. aeruginosa (ATCC27853)
From the text: as §2
This table focuses on the sensitive part of the LpxCi-4 dose response curve (30 mg/kg) by examining the mean log CFU at 0 or 24 hours, as well as the log change in CFU at 24 hours relative to zero hours (“ΔLogCFU vs […]”). Data is given for animals treated with vehicle, LpxCi-4 at 30 mg/kg, a second agent alone at the indicated doses or the combination of LpxCi-4 at 30 mg/kg plus the second agent at the indicated dose. The standard errors for each measurement are also given (n=5 animals/group). By comparing the observed drop in CFU of the combination with the sum of the drop in CFU associated with each of the two agents given separately, one can determine whether the combination is, in fact, synergistic in vivo.

envA1 (D22) E. coli = experiment: MIC by broth microdilution, isogenic envA1 mutant strain; assay type: cell-based; conditions: Strain envA1 (D21)
Procedure: as §1

[3] = with LpxCi-3, antibacterial agent at 1/16 MIC
[4] = with LpxCi-3, antibacterial agent at 1/64 MIC
[5] = with LpxCi-3, antibacterial agent at ¼ MIC
[6] = strain 27853, combination agent Vanco

## O=C(O)c1cn(C2CC2)c2cc(N3CCNCC3)c(F)cc2c1=O [Ciprofloxacin]
Gram negative bacteria; [3]
  Synergy Score: 1.06
Gram negative bacteria; [4]
  Synergy Score: 1.02
Gram negative bacteria; [5]
  Synergy Score: 1.25

## C[C@@H](O)[C@H]1C(=O)N2C(C(=O)O)=C(SCCN=CN)C[C@H]12 [Imipenem, imipenem]
Gram negative bacteria; with LpxCi-1, antibacterial agent at 1/16 MIC
  Synergy Score: 0.40
Gram negative bacteria; with LpxCi-1, antibacterial agent at 1/64 MIC
  Synergy Score: .035
Gram negative bacteria; with LpxCi-1, antibacterial agent at ¼ MIC
  Synergy Score: 0.58
Gram negative bacteria; with LpxCi-2, antibacterial agent at 1/16 MIC
  Synergy Score: 1.06
Gram negative bacteria; with LpxCi-2, antibacterial agent at 1/64 MIC
  Synergy Score: 1.02
Gram negative bacteria; with LpxCi-2, antibacterial agent at ¼ MIC
  Synergy Score: 1.25
Gram negative bacteria; [3]
  Synergy Score: 0.17
Gram negative bacteria; [4]
  Synergy Score: 0.13
Gram negative bacteria; [5]
  Synergy Score: 0.36

## C[C@@H](O)[C@H](NC(=O)c1ccc(C#Cc2ccc(CN3CCOCC3)cc2)cc1)C(=O)NO [LpxCi-3, N-((2S,3R)-3-hydroxy-1-(hydroxyamino)-1-oxobutan-2-yl)-4-((4-(morpholinomethyl)phenyl)ethynyl)benzamide]
K. pneumo. (ATCC43816); bacterial strain ATCC43816
  in vivo synergy with vancomycin: in vivo synergy
K. pneumo. (ATCC43816); strain 43816
  Static Dose, LpxC cmpd: >1000
  Static Dose, LpxC in combination: 107

## CC(C)(N)[C@H](NC(=O)c1ccc(C#C/C=C/C2CC2)cc1)C(=O)NO [LpxCi-5, (S,E)-N-(3-amino-1-(hydroxyamino)-3-methyl-1-oxobutan-2-yl)-4-(4-cyclopropylbut-3-en-1-ynyl)benzamide]
[1]; 24 hr, SC bid × 1
  Mean CFU/g thigh muscle (SEM): 3.81 × 10^7 CFU/g
  CFU/Drug Plate - Dilution 10^0: +
  CFU/Drug Plate - Dilution 10^−1: 780 CFU/Drug Plate and + (4×)
[1]; 48 hr, SC bid × 2
  Mean CFU/g thigh muscle (SEM): 3.80 × 10^8 CFU/g
  CFU/Drug Plate - Dilution 10^0: +
  CFU/Drug Plate - Dilution 10^−1: +
[1]; 72 hr, SC bid × 3
  Mean CFU/g thigh muscle (SEM): 1.48 × 10^9 CFU/g
  CFU/Drug Plate - Dilution 10^0: +
  CFU/Drug Plate - Dilution 10^−1: +
[1]; Day 8, SC bid × 7
  Mean CFU/g thigh muscle (SEM): all animals died
[1]; LpxCi-5 at 35 mg/kg bid (70 mg/kg/day)
  protection of the animals: provides protection to the animals out to 72 hours
[1]; LpxCi-5 at 35 mg/kg bid alone
  resistant CFU present at 24, 48 and 72 hours: > 10^3 CFU/thigh
  total burden of CFU by 72 hours: > 10^9 CFU/thigh
[1]; LpxCi-5 with Vancomycin
  in vivo synergy and suppression of emergence of resistant mutants: synergistic with Vancomycin in vivo
[1]; bid for seven consecutive days
  survival to Day 8: All animals were dead by Day 8

## CC(C)(O)[C@H](NC(=O)c1ccc(C#CC#CC2CC2)cc1)C(=O)NO [LpxCi-6, (S)-4-(cyclopropylbuta-1,3-diynyl)-N-(3-hydroxy-1-(hydroxyamino)-3-methyl-1-oxobutan-2-yl)benzamide]
K. pneumo. (ATCC43816); strain 43816
  Static Dose, LpxC cmpd: 240
  Static Dose, LpxC in combination: 80
K. pneumo. (ATCC43816); strain 43816, combination agent Vanco
  Fold Shift Static Dose: 3x
[2]; bacterial strain ATCC27853
  in vivo synergy with vancomycin: in vivo synergy
[2]; strain 27853, LpxC compound alone
  Static Dose, LpxC cmpd: 269
[2]; [6]
  Fold Shift Static Dose: 1.8x
  Static Dose, LpxC in combination: 151

## Cc1onc(-c2ccccc2)c1C(=O)N[C@@H]1C(=O)N2[C@@H]1SC(C)(C)[C@@H]2C(=O)O [Oxacillin, oxacillin]
envA1 (D22) E. coli
  MIC: 16 µg/mL (≈ 39.9 µM)
[2]; 24 hr, second block of Table 5, mg/kg/day b.i.d.: 3936 30, Eryth. 60, Dapto. 3, Oxacil. 100
  ΔLogCFU vs 24 hr: −0.35
[2]; 24 hr, second block of Table 5, mg/kg/day b.i.d.: 3936 30, Eryth. 60, Dapto. 3, Oxacil. 100, n=5
  Log CFU Mean: 7.29
[2]; P. aeruginosa (ATCC27853), summary
  in vivo synergy with LpxC inhibitors: modest but potentially useful in vivo synergy
